The test system of data set [1] is MCF-7. Briefly: Proliferation assay, MCF-7. The class given is cell-based, human. The conditions noted are these: MCF7, 96 h, 4 days incubation, crystal violet. The procedure: (§1) Cultivated human tumor cells (as indicated) were flattened out at a density of 5000 cells/measuring point in a 96-well multititer plate in 200 μl of the corresponding growth medium. After 24 hours, the cells of one plate (zero-point plate) were colored with crystal violet (see below), while the medium of the other plates was replaced by fresh culture medium (200 μl), to which the test substances were added in various concentrations (0 μm, as well as in the range of 0.01-30 μm; the final concentration of the solvent dimethyl sulfoxide was 0.5%. The cells were incubated for 4 days in the presence of test substances. The cell proliferation was determined by coloring the cells with crystal violet: the cells were fixed by adding 20 μl/measuring point of a 11% glutaric aldehyde solution for 15 minutes at room temperature. After three washing cycles of the fixed cells with water, the plates were dried at room temperature. The cells were colored by adding 100 μl/measuring point of a 0.1% crystal violet solution (pH was set at 3 by adding acetic acid). After three washing cycles of the colored cells with water, the plates were dried at room temperature. The dye was dissolved by adding 100 μl/measuring point of a 10% acetic acid solution. The extinction was determined by photometry at a wavelength of 595 nm. The change of cell growth, in percent, was calculated by standardization of the measured values to the extinction values of the zero-point plate (=0%) and the extinction of the untreated (0 μm) cells (=100%).

The target of data set [2] is T1, CDK2/CycE (Homo sapiens, UniProt P24941).
T1 construct: GST; purchased Dr. Dieter Marmé, Klinik für Tumorbiologie, Freiburg (external academic supplier); host or cells: baculovirus-infected Sf9 insect cells
Briefly: CDK2/CycE kinase assay. Format: biochemical. The conditions noted are these: recombinant CDK2/CycE, histone IIIS substrate, 0.5 μm ATP. As to the method: Recombinant CDK2- and CycE-GST-fusion proteins, purified from baculovirus-infected insect cells (Sf9), were obtained by Dr. Dieter Marmé, Klinik für Tumorbiologie [Clinic for Tumor Biology], Freiburg. Histone IIIS, which was used as a kinase substrate, was purchased by the Sigma Company.
CDK2/CycE (50 ng/measuring point) was incubated for 15 minutes at 22° C. in the presence of various concentrations of test substances (0 μm, as well as within the range of 0.01-100 μm) in assay buffer [50 mmol of tris/HCl pH 8.0, 10 mmol of MgCl2, 0.1 mmol of Na ortho-vanadate, 1.0 mmol of dithiothreitol, 0.5 μm of adenosine triphosphate (ATP), 10 μg/measuring point of histone IIIS, 0.2 μCi/measuring point of ^33P-gamma ATP, 0.05% NP40, 12.5% dimethyl sulfoxide]. The reaction was stopped by adding EDTA solution (250 mmol, pH 8.0, 14 μl/measuring point).
From each reaction batch, 10 μl was applied to P30 filter strips (Wallac Company), and non-incorporated ^33P-ATP was removed by subjecting the filter strips to three washing cycles for 10 minutes each in 0.5% phosphoric acid. After the filter strips were dried for one hour at 70° C., the filter strips were covered with scintillator strips (MeltiLex™ A, Wallac Company) and baked for one hour at 90° C. The amount of incorporated ^33p (substrate phosphorylation) was determined by scintillation measurement in a gamma-radiation measuring device (Wallac).

The test system of data set [3] is H460. Briefly: Proliferation assay, H460. Format: cell-based. The conditions noted are these: Homo sapiens, NCI-H460, 96 h; comparison table; 4 days incubation, crystal violet. As to the method:
as §1, with “After three washing cycles of the colored cells with water, the plates were dried at room temperature. The dye was dissolved by adding 100 μl/measuring point of a 10% acetic acid solution.” left out

For data set [4], the system named is DU145. The data set is described as follows: Proliferation assay, DU145. The class given is cell-based. To be noted: Homo sapiens, DU-145, 96 h; comparison table; 4 days incubation, crystal violet. As to the method:
as §1, with “After three washing cycles of the colored cells with water, the plates were dried at room temperature. The dye was dissolved by adding 100 μl/measuring point of a 10% acetic acid solution.” left out

Data set [5] has as its system HCT116. The data set is described as follows: Proliferation assay, HCT116. Format: cell-based. The conditions noted are these: Homo sapiens, HCT-116, 96 h; comparison table; 4 days incubation, crystal violet. As to the method:
as §1, with “After three washing cycles of the colored cells with water, the plates were dried at room temperature. The dye was dissolved by adding 100 μl/measuring point of a 10% acetic acid solution.” left out

Where only a bound is given, the exact number is not on record here.

By IC50 is commonly meant the concentration at which inhibition is half-maximal. Usually melting point stands for the temperature, or range, at which the solid turns liquid. For the compound `C[S+]([O-])c1ccc2c(c1)/C(=C1/Nc3ccccc3C1=O)C(=O)N2` (stereo not drawn) [Example 2.0, 5-Methylsulfinyl-indirubin], the melting point is 284 °C. In addition, the IC50 in data set [1] (Homo sapiens, comparison table) amounted to 1500 nM. In addition, the 50% inhibitory concentration (IC50) in data set [2] (comparison table) came out at 80 nM. In addition, half-maximal inhibition in data set [3] (IC50) required 4000 nM. Besides, in data set [4], half-maximal inhibition (IC50) required 6000 nM. Moreover, the midpoint of inhibition in data set [5], the IC50, lay at 2500 nM.
Consider `CSc1ccc2c(c1)/C(=C1/Nc3ccc(NC(C)=O)cc3C1=O)C(=O)N2` [Example 5.0, 5-Methysulfanyl-5′-N-acetylindirubin], for which the values for the IC50 in data set [1] (human tumor cells) and in data set [2] were 5000 nM and 110 nM, respectively.
`CSc1ccc2c(c1)/C(=C1/Nc3ccc(OCc4ccccc4)cc3C1=O)C(=O)N2` [Example 5.1]: the IC50 in data set [2] worked out at 5000 nM.
Compound `CSc1ccc2c(c1)/C(=C1/Nc3ccccc3/C1=N\O)C(=O)N2` [Example 4.0, 5-Methylsulfanyl-3′,-hydroyimino-indirubin] displayed a melting point of 156 °C. This compound returned an IC50 in data set [1] (Homo sapiens, comparison table) of 700 nM. Further, in data set [2] (comparison table), the half-inhibitory concentration (IC50) worked out at 20 nM. Besides, in data set [3], the midpoint of inhibition, the IC50, lay at 1000 nM. For the same compound, in data set [4], the IC50 amounted to 1000 nM. In data set [5], this compound returned a 50% inhibitory concentration (IC50) of 600 nM.
Turning to `CSc1ccc2c(c1)/C(=C1/Nc3ccccc3C1=O)C(=O)N2` [Example 1.0, 5-Methylsulfanyl-indirubin], the melting point is > 210 °C. The compound further registered a half-maximal inhibitory concentration (IC50) in data set [1] (Homo sapiens, comparison table) of 500 nM. Besides, the concentration for half-maximal inhibition (IC50) in data set [2] (comparison table) worked out at 300 nM.

The values above are taken from US20020107404A1, “Sulfur-containing indirubin derivatives, their production and use” (Schering AG, priority 2000, published 2002).
